{"source": "patent US20240327421A1", "about": "(Marquette University, priority 2017, published 2024)", "key": {"Androgen Receptor (AR)": {"target": "T1, Androgen Receptor (AR) (Homo sapiens, UniProt P10275)", "T1 sequence (P10275 669-900 limits assumed)": "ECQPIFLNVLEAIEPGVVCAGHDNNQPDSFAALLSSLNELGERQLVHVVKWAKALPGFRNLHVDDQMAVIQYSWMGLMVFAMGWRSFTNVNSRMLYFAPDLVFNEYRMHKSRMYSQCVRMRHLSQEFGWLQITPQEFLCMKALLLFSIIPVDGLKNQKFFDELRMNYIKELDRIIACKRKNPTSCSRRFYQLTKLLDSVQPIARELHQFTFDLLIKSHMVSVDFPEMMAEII", "assay": "GeneBLAzer nuclear hormone receptor specificity assay, AR", "format": "cell-based", "settings": "0.25 to 25 μM; listed as ISP358-2"}, "ovariectomized mice": {"tested_on": "ovariectomized mice", "assay": "Bloodwork chemistry and hematology panel", "format": "in vivo", "settings": "single IP injection, 0.5 or 5 mg/kg", "protocol": "FIG. 14. Bloodwork panel for tissue pathology analysis for ISP358-2. Bloodwork hematology analysis was performed by Animal Reference Pathology, LLC in Salt Lake City, Utah (animalreferencepathology.com). Reference ranges are from Charles River Laboratories for CrL: Wi (Han) female 8-16 weck old rats. Blood samples were taken via cardiac puncture at the same time point and treatment conditions as in FIGS. 13A-13M. […] In some cases hemolysis occurred, likely due to the blood collection procedure, which precluded analysis for those samples, thus, samples sizes in the analysis were 6-8. The mean and standard error of the mean of cach group is listed in the table, along with outcomes from one-way ANOVA statistical analysis. […] The hematology samples were analyzed by a Sysmex XT-2000iV using veterinary software and the rat species setting.^3 The reagents for individual assays were sourced from either Seimens, RandOx or Sekisui."}, "Vitamin D Receptor (VDR)": {"target": "T2, Vitamin D Receptor (VDR) (Homo sapiens, UniProt P11473)", "T2 sequence (P11473 127-423 limits assumed)": "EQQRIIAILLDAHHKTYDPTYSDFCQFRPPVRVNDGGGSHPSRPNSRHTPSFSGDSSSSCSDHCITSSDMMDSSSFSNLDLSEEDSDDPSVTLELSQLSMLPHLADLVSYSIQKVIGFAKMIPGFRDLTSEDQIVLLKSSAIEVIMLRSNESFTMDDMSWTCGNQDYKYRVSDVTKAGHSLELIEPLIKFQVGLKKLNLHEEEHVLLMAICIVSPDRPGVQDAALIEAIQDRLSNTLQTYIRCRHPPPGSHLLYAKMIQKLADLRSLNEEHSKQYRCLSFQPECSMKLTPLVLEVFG", "assay": "GeneBLAzer nuclear hormone receptor specificity assay, VDR", "format": "cell-based", "settings": "0.25 to 25 μM; listed as ISP358-2"}, "[1]": {"target": "T3, Progesterone Receptor (PR) (Homo sapiens, UniProt P06401)", "T3 sequence (P06401 679-913 limits assumed)": "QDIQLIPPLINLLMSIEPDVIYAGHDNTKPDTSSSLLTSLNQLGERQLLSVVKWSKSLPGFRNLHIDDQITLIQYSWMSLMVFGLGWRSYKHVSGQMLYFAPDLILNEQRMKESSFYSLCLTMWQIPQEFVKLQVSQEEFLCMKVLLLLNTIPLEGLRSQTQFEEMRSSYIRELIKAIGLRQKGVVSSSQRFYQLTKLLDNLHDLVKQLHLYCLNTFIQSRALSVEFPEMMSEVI", "assay": "GeneBLAzer nuclear hormone receptor specificity assay, PR", "format": "cell-based", "settings": "0.25 to 25 μM; listed as ISP358-2", "protocol": "Nuclear Hormone Receptor Specificity Assay. Selectivity measurements were performed using the SelectScreen™ cell-based nuclear receptor profiling service from ThermoFisher (FIG. 3A). This is a FRET-based assay that uses GeneBLAzer™ technology. It detects ligand binding to and activation of a nuclear hormone receptor of interest (ligand binding domain; LBD) that is fused to a GAL4 DNA binding domain (DBD), which upon activation induces expression of beta-lactamase. The assay has a Z′≥0.5 in agonist mode. […]"}, "[2]": {"target": "T4, Mineralocorticoid Receptor (MR) (Homo sapiens, UniProt P08235)", "T4 sequence (P08235 726-964 limits assumed)": "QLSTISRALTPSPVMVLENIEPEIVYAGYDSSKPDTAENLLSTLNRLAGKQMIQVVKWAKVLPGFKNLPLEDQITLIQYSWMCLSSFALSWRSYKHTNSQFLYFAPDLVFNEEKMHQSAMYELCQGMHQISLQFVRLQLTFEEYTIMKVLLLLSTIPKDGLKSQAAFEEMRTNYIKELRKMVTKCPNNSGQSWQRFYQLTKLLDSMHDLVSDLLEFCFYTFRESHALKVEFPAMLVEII", "assay": "GeneBLAzer nuclear hormone receptor specificity assay, MR", "format": "cell-based", "settings": "0.25 to 25 μM; listed as ISP358-2"}, "MCF-7 cells": {"tested_on": "MCF-7 cells", "assay": "MTT assay for proliferation of MCF-7 cells", "format": "cell-based", "settings": "24 h treatment, 0.001-10 μM", "protocol": "FIGS. 15A-15C. MTT assay for proliferation of MCF-7 cells. Cells were seeded into 96-well plates and incubated for 24 hr before treatment was applied. […] Absorbance values were converted to cell counts using a standard growth curve.\nMTT Assays. Human breast cancer cells (MCF-7) were provided by Dr. Manish Patankar (Department of Obstetrics and Gynecology, University of Wisconsin-Madison). Cells were cultured in Eagle's Minimum Essential Media (EMEM) supplemented with 10% fetal bovine serum and 0.01 mg/mL human recombinant insulin in 5% CO2 at 37° C. A seeding density of 7,000 cells per well was chosen and applied to a 96 well plate. […] Treated cells were incubated for 24 hours after which an MTT (3-(4,5-Dimethylthiazol-2-yl)-2,5-Diphenyltetrazolium Bromide) assay was performed by adding 20% MTT in EMEM solution to cach well and incubating for 4 hours. Formazan crystal metabolites were dissolved using 100% DMSO and absorbance was read at OD 570 nm as well as a reference of 650 nm using a VMax kinetic microplate reader (Molecular Devices, CA) running Softmax Pro version 6.1. Absorbances were converted to cell number using a standard growth curve."}, "CYP3A4": {"target": "T5, CYP3A4 (Homo sapiens, UniProt P08684)", "T5 construct": "purchased Promega Corporation (Madison, WI)", "T5 sequence (P08684 whole entry)": "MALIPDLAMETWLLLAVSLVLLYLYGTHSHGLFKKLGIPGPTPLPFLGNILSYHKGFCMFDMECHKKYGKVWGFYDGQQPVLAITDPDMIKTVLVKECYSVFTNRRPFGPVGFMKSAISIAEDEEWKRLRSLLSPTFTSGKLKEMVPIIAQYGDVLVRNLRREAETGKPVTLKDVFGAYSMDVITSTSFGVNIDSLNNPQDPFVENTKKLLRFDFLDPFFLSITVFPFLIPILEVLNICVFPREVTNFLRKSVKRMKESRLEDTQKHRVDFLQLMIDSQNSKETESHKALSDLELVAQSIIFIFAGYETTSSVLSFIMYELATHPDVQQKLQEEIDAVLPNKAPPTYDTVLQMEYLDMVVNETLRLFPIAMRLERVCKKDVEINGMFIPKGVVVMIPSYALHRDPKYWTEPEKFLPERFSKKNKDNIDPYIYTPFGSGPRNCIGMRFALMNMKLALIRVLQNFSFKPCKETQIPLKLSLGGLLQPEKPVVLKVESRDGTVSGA", "assay": "P450-Glo CYP450 inhibition, CYP3A4", "format": "in vitro ADME", "settings": "highest concentration 62.6 μM", "protocol": "In Vitro Druggability Assays-CYP450 Binding, hERG & Nephelometry. The P450-Glo™ Screening System from Promega Corporation (Madison, WI) was used to measure CYP450 (cytochrome P450) inhibition, as described in the kit instructions. Assays were run in 96-well white plates (Corning® 3912), and luminescence was measured on a SpectraMax M5 instrument (FIG. 6). The luminescence signal is proportional to the amount of luciferin product formed by the CYP reaction. Compounds were prepared in DMSO, then an eight-step 1:2 dilution series was made in DMSO. […] After adding the relevant Cytochrome P450 enzyme, the plate was incubated at 37° C. for 10 minutes to allow components to come to temperature. Next, the NADPH regeneration system was added to activate the reaction on a luminogenic P450-GloTM substrate, and incubated at 37° C. for 10-30 min, according to kit instructions for each CYP enzyme. The enzyme reaction was stopped by the addition of Luciferin Detection Reagent and luminescence of the plate was read in a Spectramax M5 (Molecular Devices) after a 20 min incubation at room temperature. Data were normalized to positive controls (α-naphthoflavone for CYP1A2, sulfaphenazole for CYP2C9, quinidine for CYP2D6, and ketoconazole for CYP3A4). Data analysis was with Prism software, as described above."}}, "note": "Entries after “also recorded” stand apart in the source; their conditions may differ."}
{"smiles": "OC[C@H]1CC[C@H](c2ccc(O)cc2)CC1", "note": "[Compound 16]", "values": [{"measurement": "agonist activity, AR", "setting": "Androgen Receptor (AR)", "value": "not an agonist; also recorded: no significant off-target activity"}, {"measurement": "bloodwork chemistry and hematology vs reference ranges", "setting": "ovariectomized mice", "value": "do not show significant deviations from expected reference ranges"}, {"measurement": "agonist activity, VDR", "setting": "Vitamin D Receptor (VDR)", "value": "not an agonist; also recorded: no significant off-target activity"}, {"measurement": "agonist activity, PR", "setting": "[1]", "value": "not an agonist; also recorded: no significant off-target activity"}, {"measurement": "agonist activity, MR", "setting": "[2]", "value": "not an agonist; also recorded: no significant off-target activity"}, {"measurement": "proliferation of MCF-7 cells vs untreated control", "setting": "MCF-7 cells", "value": "No significant changes in the growth of MCF-7 cells"}, {"measurement": "proliferation of MCF-7 cells vs untreated control", "setting": "MCF-7 cells; listed as ISP358-2", "value": "neither ISP358-2 nor DPN showed any significant proliferation"}, {"measurement": "CYP3A4 inhibition", "setting": "CYP3A4", "value": "no significant inhibition"}, {"measurement": "IC50", "setting": "CYP3A4", "value": "89 ± 18", "unit": "µM"}]}
